Counter-ions that a name gives are not always drawn.

Data on two compounds can be found in publication PMC8839615 (Molecules, 2022).

The nature of data set [1]: Tissue distribution study of β-CD in rats. The data set is classed as in vivo, Wistar rats. As for the experimental part: The plasma and urine samples were kept at indoor temperature and dissolved before analysis. First, 100 µL of sample was added to a 1.5 mL Eppendorf tube together with 10 µL of ISs solution. Then, 300 µL of methanol:acetonitrile (1:1, v/v) was added, vortexed for 3 min, sonicated for 2 min in an ice-water bath, and centrifuged for 8 min at 16,000 rpm to deposit protein. The supernatant was transferred to a 1.5 mL Eppendorf tube, desiccated under airflow at room temperature, re-dissolved in 50 μL methanol, vortexed for 3 min, sonicated for 5 min in an ice-water bath, and centrifuged for 8 min at 16,000 rpm for LC-MS/MS analysis. For tissue and fecal samples, 100 mg of each sample was precisely weighed and added to a 5 mL Eppendorf tube, then mixed with 1 mL normal saline. The tissue cells were destructed by homogenization to mix with normal saline sufficiently, and the homogenization was achieved after centrifugation for 10 min at 4000 rpm. […]
Eighteen male Wistar rats were separated into three groups with six rats in every group based on different times after administration, containing group A (30 min after oral administration), group B (1h after oral administration), and group C (4 h after oral administration). […] The tissue homogenization samples of the rats in each group were treated according to the contents of Section 2.4.1, and then analyzed according to Section 2.2.1.

Data set [2] is described as follows: Pharmacokinetics study in rats after oral administration (plasma, LC-MS/MS). Type of data set: in vivo, Wistar rats. To be noted: for CLZ / VZ / half-life / Cmax: mean ± SD, n = 6; for half-life: po. The protocol:
The liquid chromatographic separation process was operated on an XR LC-20AD Prominence^TM UFLC system (Shimadzu, Japan). At a column temperature at 40 °C, substances were analyzed on an Atlantis T3 (2.1 × 150 mm, 3 μm) column. The mobile phase system was water with 0.1% formic acid (A) and methanol with 0.1% formic acid (B). A flow rate of 0.4 mL/min and sample injection volume of 5 μL were used for gradient elution. The gradient elution program was established as follows: 0.01–0.3 min, 5% B; 0.3–0.8 min, 5–50% B; 0.8–1.5 min, 50–70% B; 1.5–2.8 min, 70–85% B; 2.8–5.0 min, 85% B; 5.0–5.01 min, 85–5% B; and 5.01–7.0 min, 5% B.
Mass spectrometry quantitative analysis was conducted on a Q TRAP 4000 MS/MS system to collect data, and then analyst software (version 1.6, AB Sciex, Framingham, MA, USA) was used to handle data. In the MRM mode and taking nitrogen as the circulating gas, electrospray positive ionization (ESI+) was used to analyze four substances. The detailed MS parameters were established as follows: gas 1, 50 psi; gas 2, 40 psi; air curtain gas, 40 psi; ion spray voltage, 5500 V; ion source temperature, 500 °C. Declustering potential (DP), entrance potential (EP), collision energy (CE), and cell exit potential (CXP) were performed as parameters optimized for substances in the MRM mode.
The plasma and urine samples were kept at indoor temperature and dissolved before analysis. First, 100 µL of sample was added to a 1.5 mL Eppendorf tube together with 10 µL of ISs solution. Then, 300 µL of methanol:acetonitrile (1:1, v/v) was added, vortexed for 3 min, sonicated for 2 min in an ice-water bath, and centrifuged for 8 min at 16,000 rpm to deposit protein. The supernatant was transferred to a 1.5 mL Eppendorf tube, desiccated under airflow at room temperature, re-dissolved in 50 μL methanol, vortexed for 3 min, sonicated for 5 min in an ice-water bath, and centrifuged for 8 min at 16,000 rpm for LC-MS/MS analysis. For tissue and fecal samples, 100 mg of each sample was precisely weighed and added to a 5 mL Eppendorf tube, then mixed with 1 mL normal saline. The tissue cells were destructed by homogenization to mix with normal saline sufficiently, and the homogenization was achieved after centrifugation for 10 min at 4000 rpm. The methods to precipitate the protein of tissue and feces homogenization were the same as those of the plasma samples.
Eighteen male Wistar rats were separated into three groups with six rats in every group based on different oral medicines, containing a β-CD-DM group (inclusion compounds of DM with β-CD), DM group (single DM), and β-CD group (single β-CD). Each rat was administered to orally, and the dosage of every group was computed by the equal transformation of human and rat surface area of the body by the clinical dosage; therefore, 6 mg/kg of the β-CD-DM group (DM:β-CD(6 mg/kg:393 mg/kg) mixed evenly), 6 mg/kg of the DM group, and 393 mg/kg of the β-CD group were obtained. Blood samples (250 μL) were obtained from the orbital venous plexus at 0, 0.083, 0.25, 0.5, 0.75, 1, 1.5, 2, 4, 6, 8, 12, 24, 36 h after oral delivery. Then, the blood was centrifuged for 10 min at 4000 rpm to obtain the separation of plasma, and the plasma was stored in at −80 ℃ before application. The plasma samples of the rats in each group were treated according to the contents of Section 2.4.1, and then analyzed according to Section 2.2.1. The plasma concentrations of β-CD, DM, ginsenoside Re (IS 1), and psoralen (IS 2) were calculated by the ratio of peak area between analytes and internal standards. The pharmacokinetic parameters of the three groups of analytes were handled by adopting pharmacokinetic software DAS 2.1 found on non-compartment analysis. Then, the obtained main pharmacokinetic parameters of every group were used for independent sample T-test with SPSS v24.0; p < 0.05 was considered as a difference, and p < 0.01 was considered as a significant difference.

For data set [3] the following is noted: cited from earlier work.
The mark [4] stands for this setting: analyte β-CD in rat plasma, β-CD group (single β-CD), 393 mg/kg oral.
The mark [5] stands for this setting: analyte β-CD in rat plasma, β-CD-DM group (inclusion compounds, DM:β-CD 6 mg/kg:393 mg/kg) oral.
The mark [6] stands for this setting: analyte DM in rat plasma, DM group (single DM), 6 mg/kg oral.
Setting [7] is: analyte DM in rat plasma, β-CD-DM group (inclusion compounds, DM:β-CD 6 mg/kg:393 mg/kg) oral.

For the compound `OC[C@H]1O[C@@H]2O[C@H]3[C@H](O)[C@@H](O)[C@@H](O[C@H]4[C@H](O)[C@@H](O)[C@@H](O[C@H]5[C@H](O)[C@@H](O)[C@@H](O[C@H]6[C@H](O)[C@@H](O)[C@@H](O[C@H]7[C@H](O)[C@@H](O)[C@@H](O[C@H]8[C@H](O)[C@@H](O)[C@@H](O[C@H]1[C@H](O)[C@H]2O)O[C@@H]8CO)O[C@@H]7CO)O[C@@H]6CO)O[C@@H]5CO)O[C@@H]4CO)O[C@@H]3CO` [β-CD, β-cyclodextrin], the “time at which concentration in entire tissues reached its peak” value in data set [1] (393 mg/kg single oral, heart, liver, spleen, lung, kidney, sampled 30 min, 1 h, 4 h) amounted to 1 h. Also, in data set [1] (4 h after 393 mg/kg single oral, tissue concentration decreased significantly), the accumulation in tissues result was “without noticeable accumulation”. Moreover, the CLZ is 32.7 ± 10.2 L/h/kg in data set [2] (setting [4]) and 3.03 × 10^1 ± 6.18 L/h/Kg in data set [2] (setting [5]). The VZ in data set [2] (setting [4]) turned out to be 400 ± 176 L/kg; in data set [2] (setting [5]), 354 ± 71.6 L/kg. Also, the half-life in data set [2] (male, Wistar, rat, plasma, 393 mg/kg, analyte β-CD in rat plasma, β-CD group (single β-CD), 393 mg/kg oral) is 8.33 ± 2.46 h; in data set [2] (male, Wistar, rat, plasma, 393 mg/kg, analyte β-CD in rat plasma, β-CD-DM group (inclusion compounds, DM:β-CD 6 mg/kg:393 mg/kg) oral), 8.21 ± 1.47 h. In addition, the concentration at 30 min in data set [2] (male, Wistar, rat, plasma, 30 min after oral administration, 393 mg/kg, read-out: concentration of β-CD in rat plasma) is roughly 3500 ng/mL. Further, the concentration at 1 h in data set [2] (male, Wistar, rat, plasma, 1 h after oral administration, 393 mg/kg, tissue concentration similar, read-out: concentration of β-CD in rat plasma) was roughly 3000 ng/mL. Further, the “AUC0–t as share of AUC0–∞” value in data set [2] (β-CD in rat plasma, oral, sampling to 36 h) was “more than 96%”. For the same compound, the “time until almost wholly removed from rat plasma” value in data set [2] (β-CD, oral administration) is recorded as no more than 36 h.

As to `COc1ccc2c(c1)[C@]13CCCC[C@@H]1[C@H](C2)N(C)CC3` [DM, Dextromethorphan hydrobromide, reference compound], the water solubility entry in data set [3] is listed as “poorly water-soluble”. In data set [2] (setting [6]), the CLZ was 6.55 × 10^1 ± 8.60 L/h/Kg, the Cmax is given as 2.91 × 10^1 ± 3.17 ng/mL/h and the VZ amounted to 1640 ± 996 L/kg. Also, in data set [2] (setting [7]), the CLZ is 44.1 ± 12.5 L/h/kg, the Cmax is 3.27 × 10^1 ± 4.67 ng/mL/h and the VZ amounted to 1900 ± 643 L/kg. In data set [2] (male, Wistar, rat, in vivo, 6 mg/kg, analyte DM in rat plasma, DM group (single DM), 6 mg/kg oral), this compound had a half-life of 16.8 h. Moreover, the half-life in data set [2] (male, Wistar, rat, in vivo, 6 mg/kg, analyte DM in rat plasma, β-CD-DM group (inclusion compounds, DM:β-CD 6 mg/kg:393 mg/kg) oral) is 30.4 h.

In general, half-life refers to how long it takes for the measured level to halve. Read a high half-life as slow decline.
